Measured values from patent US11446287B2, “Compounds and methods for EP300 or CBP modulation and indications therefor” (Opna Immuno-Oncology SA, priority 2019, dated 2022).
pIC50: −log10 of the molar value.

What follows are compounds tested against T1, Recombinant human EP300 containing the bromodomain (EP300-BD (1040-1161)) (Homo sapiens, UniProt Q09472) (assay: EP300 Alphascreen binding assay).
T1 construct: Recombinant human EP300 bromodomain (EP300-BD (1040-1161)); made in house; host or cells: E. coli BL21-CodonPlus (DE3), modified pET vector
T1 sequence (Q09472 1040-1161): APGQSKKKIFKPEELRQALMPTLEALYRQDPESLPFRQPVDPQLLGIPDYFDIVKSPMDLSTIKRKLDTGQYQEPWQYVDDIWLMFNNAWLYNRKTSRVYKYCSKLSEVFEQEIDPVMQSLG
Outline: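 Displacement of a biotinylated acetyl-K56 histone H3 peptide from the N-His bromodomain construct (1040-1161) measured by AlphaScreen proximity, beads at 7.5 μg/ml final, read 60 min after addition. Protein, peptide and compound first incubated 1 h at room temperature, pH 7.5 HEPES buffer; IC50 by four-parameter logistic fit.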

`Cc1noc(C)c1-c1cnc2c(c1)c(-c1cccc(C(=O)O)c1)cn2CC1CC1` [P-0050, 3-(1-(cyclopropylmethyl)-5-(3,5-dimethylisoxazol-4-yl)-1H-pyrrolo[2,3-b]pyridin-3-yl)benzoic acid] and `Cc1noc(C)c1-c1cnc2c(c1)c(-c1ccnc(C(=O)O)c1)cn2Cc1ccccn1` [P-0044, 4-(5-(3,5-dimethylisoxazol-4-yl)-1-(pyridin-2-ylmethyl)-1H-pyrrolo[2,3-b]pyridin-3-yl)picolinic acid] fall in the same range of pIC50: 6.00 to 10.00 for the first, 6.00 to 10.00 for the second.

`Cc1noc(C)c1-c1cnc2c(c1)c(-c1ccnc(C(=O)O)c1C)cn2C(C1CC1)C1CC1` [P-0418, 4-(1-(dicyclopropylmethyl)-5-(3,5-dimethylisoxazol-4-yl)-1H-pyrrolo[2,3-b]pyridin-3-yl)-3-methylpicolinic acid] and `CCOc1nc(C(=O)O)c(C)cc1-c1cn(C(C2CC2)C2CC2)c2ncc(-c3c(C)noc3C)cc12` [P-0416, 5-(1-(dicyclopropylmethyl)-5-(3,5-dimethylisoxazol-4-yl)-1H-pyrrolo[2,3-b]pyridin-3-yl)-6-ethoxy-3-methylpicolinic acid] fall in the same range of pIC50: 6.00 to 10.00 for the first, 6.00 to 10.00 for the second.

`Cc1noc(C)c1-c1cnc2c(c1)c(-c1c(Cl)cc(C(=O)O)cc1OC1CCC1)cn2-c1cnc(C2CC2)nc1` [P-0391, 3-chloro-5-cyclobutoxy-4-(1-(2-cyclopropylpyrimidin-5-yl)-5-(3,5-dimethylisoxazol-4-yl)-1H-pyrrolo[2,3-b]pyridin-3-yl)benzoic acid] and `Cc1noc(C)c1-c1cnc2c(c1)c(-c1c(F)cc(C(=O)O)cc1OC1CCC1)cn2C1CCOCC1` [P-0410, 3-cyclobutoxy-4-(5-(3,5-dimethylisoxazol-4-yl)-1-(tetrahydro-2H-pyran-4-yl)-1H-pyrrolo[2,3-b]pyridin-3-yl)-5-fluorobenzoic acid] fall in the same range of pIC50: 6.00 to 10.00 for the first, 6.00 to 10.00 for the second.

`CCOc1cc(C(=O)O)nc(OCC)c1-c1cn(C2CCC(F)(F)CC2)c2ncc(-c3c(C)noc3C)cc12` [P-0425, 5-(1-(4,4-difluorocyclohexyl)-5-(3,5-dimethylisoxazol-4-yl)-1H-pyrrolo[2,3-b]pyridin-3-yl)-4,6-diethoxypicolinic acid] and `CCOc1cc(C(=O)O)nc(OCC)c1-c1cn(C2CCN(S(C)(=O)=O)CC2)c2ncc(-c3c(C)noc3C)cc12` [P-0435, 5-(5-(3,5-dimethylisoxazol-4-yl)-1-(1-(methylsulfonyl)piperidin-4-yl)-1H-pyrrolo[2,3-b]pyridin-3-yl)-4,6-diethoxypicolinic acid] fall in the same range of pIC50: 6.00 to 10.00 for the first, 6.00 to 10.00 for the second.

`CCOc1cc(C(=O)O)nc(OCC)c1-c1cn(-c2ccccc2F)c2ncc(-c3c(C)noc3C)cc12` [P-0414, 5-(5-(3,5-dimethylisoxazol-4-yl)-1-(2-fluorophenyl)-1H-pyrrolo[2,3-b]pyridin-3-yl)-4,6-diethoxypicolinic acid] and `CCOc1cc(C(=O)O)nc(OCC)c1-c1cn(-c2cccnc2)c2ncc(-c3c(C)noc3C)cc12` [P-0436, 5-(5-(3,5-dimethylisoxazol-4-yl)-1-(pyridin-3-yl)-1H-pyrrolo[2,3-b]pyridin-3-yl)-4,6-diethoxypicolinic acid] fall in the same range of pIC50: 6.00 to 10.00 for the first, 6.00 to 10.00 for the second.

`CCOc1cc(C(=O)O)nc(OCC)c1-c1cn(-c2cn(C(F)F)nc2C)c2ncc(-c3c(C)noc3C)cc12` [P-0429, 5-(1-(1-(difluoromethyl)-3-methyl-1H-pyrazol-4-yl)-5-(3,5-dimethylisoxazol-4-yl)-1H-pyrrolo[2,3-b]pyridin-3-yl)-4,6-diethoxypicolinic acid] and `CCOc1cc(C(=O)O)nc(OCC)c1-c1cn([C@@H](C)c2ccccn2)c2ncc(-c3c(C)noc3C)cc12` [P-0415, (S)-5-(5-(3,5-dimethylisoxazol-4-yl)-1-(1-(pyridin-2-yl)ethyl)-1H-pyrrolo[2,3-b]pyridin-3-yl)-4,6-diethoxypicolinic acid] fall in the same range of pIC50: 6.00 to 10.00 for the first, 6.00 to 10.00 for the second.

`CCOc1cc(C(=O)O)c(F)cc1-c1cn(C2CCN(C(=O)CO)CC2)c2ncc(-c3c(C)noc3C)cc12` [P-0447, 4-(5-(3,5-dimethylisoxazol-4-yl)-1-(1-(2-hydroxyacetyl)piperidin-4-yl)-1H-pyrrolo[2,3-b]pyridin-3-yl)-5-ethoxy-2-fluorobenzoic acid] and `CCOc1cc(C(=O)O)c(F)cc1-c1cn(C2CCN(C(=O)C(C)(C)C)CC2)c2ncc(-c3c(C)noc3C)cc12` [P-0445, 4-(5-(3,5-dimethylisoxazol-4-yl)-1-(1-pivaloylpiperidin-4-yl)-1H-pyrrolo[2,3-b]pyridin-3-yl)-5-ethoxy-2-fluorobenzoic acid] fall in the same range of pIC50: 6.00 to 10.00 for the first, 6.00 to 10.00 for the second.

`CCOc1cc(C(=O)O)ncc1-c1cn(C2CCOCC2)c2ncc(-c3c(C)noc3C)cc12` [P-0428, 5-(5-(3,5-dimethylisoxazol-4-yl)-1-(tetrahydro-2H-pyran-4-yl)-1H-pyrrolo[2,3-b]pyridin-3-yl)-4-ethoxypicolinic acid] and `CCOc1cc(C(=O)O)ncc1-c1cn(C(C2CC2)C2CC2)c2ncc(-c3c(C)noc3C)cc12` [P-0427, 5-(1-(dicyclopropylmethyl)-5-(3,5-dimethylisoxazol-4-yl)-1H-pyrrolo[2,3-b]pyridin-3-yl)-4-ethoxypicolinic acid] fall in the same range of pIC50: 6.00 to 10.00 for the first, 6.00 to 10.00 for the second.

Compared with `Cc1noc(C)c1-c1cnc2c(c1)c(-c1c(Cl)cc(C(=O)O)cc1OC(F)(F)F)cn2-c1cccnn1` [P-0439, 3-chloro-4-(5-(3,5-dimethylisoxazol-4-yl)-1-(pyridazin-3-yl)-1H-pyrrolo[2,3-b]pyridin-3-yl)-5-(trifluoromethoxy)benzoic acid], `COC(=O)c1cc(Cl)c(-c2cn(-c3ccc(C4CC4)nc3)c3ncc(-c4c(C)noc4C)cc23)c(OC(F)(F)F)c1` [P-0440, methyl 3-chloro-4-(1-(6-cyclopropylpyridin-3-yl)-5-(3,5-dimethylisoxazol-4-yl)-1H-pyrrolo[2,3-b]pyridin-3-yl)-5-(trifluoromethoxy)benzoate] is lower in pIC50: 6.00 to 10.00 for the first, 5.10 to 6.00 for the second.

`CCOc1nc(C(=O)O)ccc1-c1cn(C2(C)CCOCC2)c2ncc(-c3c(C)noc3C)cc12` [P-0405, 5-(5-(3,5-dimethylisoxazol-4-yl)-1-(4-methyltetrahydro-2H-pyran-4-yl)-1H-pyrrolo[2,3-b]pyridin-3-yl)-6-ethoxypicolinic acid] and `Cc1noc(C)c1-c1cnc2c(c1)c(-c1ccc(C(=O)O)cc1OC(C)C)cn2C1(C)CCOC1` (stereo not shown) [P-0407, 4-(5-(3,5-dimethylisoxazol-4-yl)-1-(3-methyltetrahydrofuran-3-yl)-1H-pyrrolo[2,3-b]pyridin-3-yl)-3-isopropoxybenzoic acid] fall in the same range of pIC50: 6.00 to 10.00 for the first, 6.00 to 10.00 for the second.

`Cc1noc(C)c1-c1cnc2c(c1)c(C#CC(C)(C)C(=O)O)cn2Cc1ccccc1` [P-0051, 4-(1-benzyl-5-(3,5-dimethylisoxazol-4-yl)-1H-pyrrolo[2,3-b]pyridin-3-yl)-2,2-dimethylbut-3-ynoic acid] and `Cc1noc(C)c1-c1cnc2c(c1)c(-c1ccnc(C(=O)O)c1)cn2Cc1ccccc1` [P-0042, 4-(1-benzyl-5-(3,5-dimethylisoxazol-4-yl)-1H-pyrrolo[2,3-b]pyridin-3-yl)picolinic acid] fall in the same range of pIC50: 6.00 to 10.00 for the first, 6.00 to 10.00 for the second.

`Cc1noc(C)c1-c1cnc2c(Cc3ccccc3)cn(-c3ccnc(C(=O)O)c3)c2c1` [P-0053, 4-(3-benzyl-6-(3,5-dimethylisoxazol-4-yl)-1H-pyrrolo[3,2-b]pyridin-1-yl)picolinic acid] and `Cc1noc(C)c1-c1cnc2c(C(=O)c3ccccc3)cn(-c3ccnc(C(=O)O)c3)c2c1` [P-0054, 4-(3-benzoyl-6-(3,5-dimethylisoxazol-4-yl)-1H-pyrrolo[3,2-b]pyridin-1-yl)picolinic acid] fall in the same range of pIC50: 6.00 to 10.00 for the first, 6.00 to 10.00 for the second.

`Cc1noc(C)c1-c1cnc2c(c1)c(-c1ccnc(C(=O)O)c1C)cn2C1CCOCC1` [P-0419, 4-(5-(3,5-dimethylisoxazol-4-yl)-1-(tetrahydro-2H-pyran-4-yl)-1H-pyrrolo[2,3-b]pyridin-3-yl)-3-methylpicolinic acid] and `Cc1noc(C)c1-c1cnc2c(c1)c(-c1ccnc(C(=O)O)c1)cn2C(c1ccccn1)C1CCC1` (stereo not shown) [P-0043, 4-(1-(cyclobutyl(pyridin-2-yl)methyl)-5-(3,5-dimethylisoxazol-4-yl)-1H-pyrrolo[2,3-b]pyridin-3-yl)picolinic acid] fall in the same range of pIC50: 6.00 to 10.00 for the first, 6.00 to 10.00 for the second.

`COc1ccc(CC(=O)O)cc1-c1cn(-c2ccc(F)cc2F)c2ncc(-c3c(C)noc3C)cc12` [P-0443, 2-(3-(1-(2,4-difluorophenyl)-5-(3,5-dimethylisoxazol-4-yl)-1H-pyrrolo[2,3-b]pyridin-3-yl)-4-methoxyphenyl)acetic acid] and `Cc1noc(C)c1-c1cnc2c(c1)c(-c1ccc(CC(=O)O)cc1)cn2-c1ccc(F)cc1F` [P-0438, 2-(4-(1-(2,4-difluorophenyl)-5-(3,5-dimethylisoxazol-4-yl)-1H-pyrrolo[2,3-b]pyridin-3-yl)phenyl)acetic acid] fall in the same range of pIC50: 6.00 to 10.00 for the first, 6.00 to 10.00 for the second.

`CCOc1cc(C(=O)O)nc(OCC)c1-c1cn(C(C2CC2)C2CC2)c2ncc(-c3c(C)noc3C)cc12` [P-0420, 5-(1-(dicyclopropylmethyl)-5-(3,5-dimethylisoxazol-4-yl)-1H-pyrrolo[2,3-b]pyridin-3-yl)-4,6-diethoxypicolinic acid] and `Cc1noc(C)c1-c1cnc2c(c1)c(-c1ccc(C(=O)O)c(Cl)c1)cn2C(c1ccccn1)C1CCCC1` (stereo not shown) [P-0038, 2-chloro-4-(1-(cyclopentyl(pyridin-2-yl)methyl)-5-(3,5-dimethylisoxazol-4-yl)-1H-pyrrolo[2,3-b]pyridin-3-yl)benzoic acid] fall in the same range of pIC50: 6.00 to 10.00 for the first, 6.00 to 10.00 for the second.

For `COc1cc(C(=O)O)ccc1-c1cn([C@@H](C)c2ccccn2)c2ncc(-c3c(C)noc3C)cc12` [P-0047, (S)-4-(5-(3,5-dimethylisoxazol-4-yl)-1-(1-(pyridin-2-yl)ethyl)-1H-pyrrolo[2,3-b]pyridin-3-yl)-3-methoxybenzoic acid], the pIC50 was 6.00 to 10.00.
